From article PMC4491662, “Synthesis, Biological Evaluation and Molecular Modeling of Substituted Indeno[1,2-b]indoles as Inhibitors of Human Protein Kinase CK2” (Pharmaceuticals, 2015)
Where two headings read alike, the source gives them in different places.

Key:
[1] = Cytotoxicity WST-1 assay, statements over the four cell lines; format: cell-based; conditions: mouse (NIH-3T3, MEF) and human (WI-38, HEK293T), WST-1, cell line not specified, read-out: EC50 (cytotoxic activity, over the cell lines)
Description: (§1) Four cell lines of various origins were used to evaluate the cytotoxicity of our target compounds 5–7. The selected cell lines were (i) NIH-3T3, a cell line originally established from the primary mouse embryonic fibroblast cells, (ii) MEF, primary mouse embryonic fibroblasts (used at their early passages) prepared as previously described, (iii) WI-38, a human diploid cell line derived from normal embryonic lung tissue, and (iv) HEK293T, a transformed variant of the human embryonic kidney cell line HEK293. After 96 h, cytotoxicity was evaluated using the WST-1 assay. […] Seventeen compounds were evaluated on the cell lines and then compared to TBB used as a standard. […]. All cells were grown in DMEM medium supplemented with 10% fetal calf serum, glutamine (2 mM), penicillin (100 U/mL), and streptomycin (50 μg/mL) at 37 °C under a humidified 5% CO2 atmosphere (Gibco). The assays were performed in sterile 96-wells microtiter plates (Falcon). Cells were plated at 500 (NIH-3T3), 750 (WI-38) or 1000 (MEF; HEK293T) cells/100 µL/well. Drug solutions (10 μL per well) of appropriate concentration (prepared by dilution in the culture medium from 2 mM stock acetonitrile solution) were added 24 h after cell seeding. For ellagic acid and emodin, DMSO was used to prepare the stock solution. After 96 h, the cytotoxicity is evaluated using the Cell Proliferation Reagent WST-1 following the procedure described by the manufacturer (Roche Applied Science). The drugs were assayed at 10, 5, 1, 0.2 and 0.04 µM in triplicate. The vehicle was used as control. The experiments were repeated three times.

HEK293T = assay: Cytotoxicity WST-1 assay on HEK293T; format: cell-based, human; conditions: 96 h; for EC50: Homo sapiens, HEK-293T, read-out: EC50 in µM ± SD
Description: as §1

WI-38 = assay: Cytotoxicity WST-1 assay on WI-38; format: cell-based, human; conditions: WI-38, 96 h; for EC50: Homo sapiens, read-out: EC50 in µM ± SD
Description: as §1

NIH-3T3 = assay: Cytotoxicity WST-1 assay on NIH-3T3; format: cell-based, mouse; conditions: for EC50: Mus musculus, NIH3T3, 96 h, read-out: EC50 in µM ± SD
Description: as §1

MEF = assay: Cytotoxicity WST-1 assay on MEF; format: cell-based, mouse; conditions: 96 h; for EC50: Mus musculus, read-out: EC50 in µM ± SD
Description: as §1

human CK2 holoenzyme [2] = target: T1, human CK2 holoenzyme (Homo sapiens, UniProt P68400); assay: biochemical; conditions: for inhibition at 10 µM: average percent inhibition at 10 µM
T1 sequence (P68400 whole entry): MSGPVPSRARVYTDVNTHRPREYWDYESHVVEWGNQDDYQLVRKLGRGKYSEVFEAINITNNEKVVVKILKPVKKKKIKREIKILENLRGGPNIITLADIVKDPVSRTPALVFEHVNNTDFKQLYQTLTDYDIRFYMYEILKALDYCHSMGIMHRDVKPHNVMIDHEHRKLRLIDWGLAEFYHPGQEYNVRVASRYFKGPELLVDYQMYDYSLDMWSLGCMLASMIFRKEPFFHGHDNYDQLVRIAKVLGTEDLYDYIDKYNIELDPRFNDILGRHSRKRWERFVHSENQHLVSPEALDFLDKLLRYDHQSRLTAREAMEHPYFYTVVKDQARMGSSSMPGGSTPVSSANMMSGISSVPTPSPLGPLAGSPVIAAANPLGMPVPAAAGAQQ
T1 sequence (P67870 whole entry partner): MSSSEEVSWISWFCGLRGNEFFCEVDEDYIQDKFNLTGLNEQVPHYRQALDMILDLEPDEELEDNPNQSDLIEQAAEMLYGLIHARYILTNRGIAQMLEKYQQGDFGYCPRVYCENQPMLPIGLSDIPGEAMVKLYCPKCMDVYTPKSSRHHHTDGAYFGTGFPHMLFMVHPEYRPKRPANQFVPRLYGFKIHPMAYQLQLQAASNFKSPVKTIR

human CK2 holoenzyme [3] = target: T1, human CK2 holoenzyme; assay: Mode of inhibition and Ki determination, CE based CK2 activity assay at varied ATP; format: biochemical; design: made in house; host or cells: Escherichia coli BL21(DE3), pT7-7 expression system; conditions: for IC50: IC50 at varied ATP
Experimental: For this purpose, reaction rates at different inhibitor concentrations were plotted in a Lineweaver-Burk diagram against the varying ATP concentration, resulting in −1/Kmapp as given by the intercepts with the abscissa in both graphs. For determining the Ki values, Kmapp were plotted against the different inhibitor concentrations as shown for 7a in Figure 6.
For this purpose, enzymatic reactions and IC50 determinations were performed as described in Section 3.3.2., but varying compositions of the assay buffer with respect to the ATP concentration were used. […] For this purpose, reaction velocities at different inhibitor concentrations were plotted in a Lineweaver-Burk diagram against the varied ATP concentrations and the corresponding −1/Kmapp were obtained by the intercepts with the abscissa. Finally the Kmapp values as obtained were plotted against the different inhibitor concentrations. By this method, the Ki values with a negative sign were given by the intercepts of the linear slope with the abscissa.

human CK2 holoenzyme [4] = target: T1, human CK2 holoenzyme; conditions: read-out: IC50 ± SD, assay buffer with 100 µM ATP

| Structure (SMILES) | EC50 (HEK293T) | EC50 (WI-38) | EC50 (NIH-3T3) | EC50 (MEF) | melting point | inhibition at 10 µM (human CK2 holoenzyme [2]) | other results |
| --- | --- | --- | --- | --- | --- | --- | --- |
| CC1CC(=O)c2c3c(n(C(C)C)c2C1)-c1ccccc1C3=O (stereo not drawn) [Compound 5a, 5-Isopropyl-7-methyl-5,6,7,8-tetrahydroindeno[1,2-b]indole-9,10-dione] | > 10 µM | > 10 µM | > 10 µM | > 10 µM | – | – | EC50 at 96 h [1]: > 10 µM |
| CC(C)C1CC(=O)c2c3c(n(C(C)C)c2C1)-c1ccccc1C3=O (stereo not drawn) [Compound 5b, 5,7-Diisopropyl-5,6,7,8-tetrahydroindeno[1,2-b]indole-9,10-dione] | > 10 µM | > 10 µM | > 10 µM | 4.4 ± 0.3 µM | – | – | EC50 at 96 h [1]: > 10 µM; IC50 (human CK2 holoenzyme [2]): 0.61 ± 0.03 µM |
| CC(C)n1c2c(c3c1-c1ccccc1C3=O)C(=O)CC(c1ccccc1)C2 (stereo not drawn) [Compound 5c, 5-Isopropyl-7-phenyl-5,6,7,8-tetrahydroindeno[1,2-b]indole-9,10-dione] | > 10 µM | > 10 µM | > 10 µM | > 10 µM | 278 °C | 7% | – |
| CC(C)n1c2c(c3c1-c1ccccc1C3=O)C(=O)CC(c1ccc(F)cc1)C2 (stereo not drawn) [Compound 5d, 7-(4-Fluorophenyl)-5-isopropyl-5,6,7,8-tetrahydroindeno[1,2-b]indole-9,10-dione] | – | – | – | – | 264 °C | 12% | – |
| CC(C)n1c2c(c3c1-c1ccccc1C3=O)C(=O)CC(c1ccco1)C2 (stereo not drawn) [Compound 5e, 7-Furan-2-yl-5-isopropyl-5,6,7,8-tetrahydroindeno[1,2-b]indole-9,10-dione] | – | – | – | – | 233.1 °C | 35% | – |
| CC1CCc2c(c3c(n2C(C)C)-c2ccccc2C3=O)C1=O (stereo not drawn) [Compound 5f, 5-Isopropyl-8-methyl-5,6,7,8-tetrahydroindeno[1,2-b]indole-9,10-dione] | > 10 µM | > 10 µM | > 10 µM | > 10 µM | – | – | – |
| CC(C)C1CCc2c(c3c(n2C(C)C)-c2ccccc2C3=O)C1=O (stereo not drawn) [Compound 5g, 5,8-Diisopropyl-5,6,7,8-tetrahydroindeno[1,2-b]indole-9,10-dione] | > 10 µM | > 10 µM | > 10 µM | > 10 µM | 215 °C | 21% | – |
| Cc1cc(O)c2c3c(n(C(C)C)c2c1)-c1ccccc1C3=O [Compound 6a, 9-Hydroxy-5-isopropyl-7-methyl-5H-indeno[1,2-b]indol-10-one] | > 10 µM | > 10 µM | > 10 µM | > 10 µM | – | – | – |
| CC(C)c1cc(O)c2c3c(n(C(C)C)c2c1)-c1ccccc1C3=O [Compound 6b, 9-Hydroxy-5,7-diisopropyl-5H-indeno[1,2-b]indol-10-one] | > 10 µM | > 10 µM | > 10 µM | > 10 µM | 188.1 °C | – | – |
| CC(C)n1c2c(c3c(O)cc(-c4ccccc4)cc31)C(=O)c1ccccc1-2 [Compound 6c, 9-Hydroxy-5-isopropyl-7-phenyl-5H-indeno[1,2-b]indol-10-one] | > 10 µM | > 10 µM | > 10 µM | > 10 µM | 198 °C | – | – |
| CC(C)n1c2c(c3c(O)cc(-c4ccc(F)cc4)cc31)C(=O)c1ccccc1-2 [Compound 6d, 7-(4-Fluorophenyl)-9-hydroxy-5-isopropyl-5H-indeno[1,2-b]indol-10-one] | > 10 µM | > 10 µM | > 10 µM | > 10 µM | 208.1 °C | – | – |
| CC(C)n1c2c(c3c(O)cc(-c4ccco4)cc31)C(=O)c1ccccc1-2 [Compound 6e, 7-Furan-2-yl-9-hydroxy-5-isopropyl-5H-indeno[1,2-b]indol-10-one] | > 10 µM | > 10 µM | > 10 µM | > 10 µM | 191 °C | – | – |
| CC(C)c1ccc2c(c1O)c1c(n2C(C)C)-c2ccccc2C1=O [Compound 6g, 9-Hydroxy-5,8-diisopropyl-5H-indeno[1,2-b]indol-10-one] | – | – | – | – | 235 °C | – | – |
| Cc1cc(=O)c2c3c(=O)c4ccccc4c3n(C(C)C)c2c1=O [Compound 7a, 5-Isopropyl-7-methyl-5H-indeno[1,2-b]indole-6,9,10-trione] | – | – | – | – | 235 °C | 87% | Ki (human CK2 holoenzyme [3]): 0.144 ± 0.022 µM; IC50 (human CK2 holoenzyme [3]; fifth of six ATP concentrations ranging from 6 to 600 µM): 3.32 µM; IC50 (human CK2 holoenzyme [3]; fourth of six ATP concentrations ranging from 6 to 600 µM): 1.27 µM; IC50 (human CK2 holoenzyme [3]; highest of six ATP concentrations, 600 µM): 5.16 µM; IC50 (human CK2 holoenzyme [3]; lowest of six ATP concentrations, 6 µM): 0.13 µM; IC50 (human CK2 holoenzyme [3]; second of six ATP concentrations ranging from 6 to 600 µM): 0.34 µM; IC50 (human CK2 holoenzyme [3]; third of six ATP concentrations ranging from 6 to 600 µM): 0.43 µM; mode of CK2 inhibition (human CK2 holoenzyme [3]; IC50 increases linearly with ATP concentration): ATP competitive; IC50 at 600 µM ATP compared to IC50 at 6 µM ATP (human CK2 holoenzyme [3]; fold higher): 40 fold; EC50 in µM ± SD (HEK293T; HEK293T, WST-1): not soluble; EC50 in µM ± SD (WI-38; WST-1): not soluble; EC50 in µM ± SD (NIH-3T3; NIH-3T3, 96 h, WST-1): not soluble; IC50 (human CK2 holoenzyme [2]): 0.43 ± 0.12 µM; EC50 in µM ± SD (MEF; WST-1): not soluble |
| CC(C)c1cc(=O)c2c3c(=O)c4ccccc4c3n(C(C)C)c2c1=O [Compound 7b, 5,7-Diisopropyl-5H-indeno[1,2-b]indole-6,9,10-trione] | > 10 µM | > 10 µM | > 10 µM | > 10 µM | 230.4 °C | 60% | IC50 (human CK2 holoenzyme [4]): 4.76 ± 0.29 µM |
| CC(C)n1c2c(=O)c(-c3ccccc3)cc(=O)c2c2c(=O)c3ccccc3c21 [Compound 7c, 5-Isopropyl-7-phenyl-5H-indeno[1,2-b]indole-6,9,10-trione] | 1.6 ± 0.2 µM | > 10 µM | > 10 µM | > 10 µM | 230.4 °C | 41% | EC50 at 96 h [1]: 0.4 to 8.8 µM |
| CC(C)n1c2c(=O)c(-c3ccc(F)cc3)cc(=O)c2c2c(=O)c3ccccc3c21 [Compound 7d, 7-(4-Fluorophenyl)-5-isopropyl-5H-indeno[1,2-b]indole-6,9,10-trione] | 4.9 ± 2.4 µM | > 10 µM | > 10 µM | 8.5 ± 0.4 µM | 258.1 °C | 42% | EC50 at 96 h [1]: 0.4 to 8.8 µM |
| CC(C)n1c2c(=O)c(-c3ccco3)cc(=O)c2c2c(=O)c3ccccc3c21 [Compound 7e, 7-Furan-2-yl-5-isopropyl-5H-indeno[1,2-b]indole-6,9,10-trione] | – | – | – | – | 216.1 °C | 82% | IC50 (human CK2 holoenzyme [2]): 1.65 ± 0.14 µM |
| CC(C)c1cc(=O)c2c(c1=O)c1c(=O)c3ccccc3c1n2C(C)C [Compound 7g, 5,8-Diisopropyl-5H-indeno[1,2-b]indole-6,9,10-trione] | 0.4 ± 0.02 µM | 2.5 ± 0.4 µM | 1.5 ± 0.8 µM | > 10 µM | 226 °C | 45% | EC50 at 96 h [1]: 0.4 to 8.8 µM |
| Brc1c(Br)c(Br)c2[nH]nnc2c1Br [TBB, reference compound] | > 10 µM | > 10 µM | > 10 µM | > 10 µM | – | – | – |
| O=c1oc2c(O)c(O)cc3c(=O)oc4c(O)c(O)cc1c4c23 [ellagic acid, reference compound] | > 10 µM | > 10 µM | > 10 µM | > 10 µM | – | 95% | IC50 (human CK2 holoenzyme [4]): 0.04 ± 0.007 µM |
| Cc1cc(O)c2c(c1)C(=O)c1cc(O)cc(O)c1C2=O [emodin, reference compound] | > 10 µM | > 10 µM | > 10 µM | > 10 µM | – | – | – |
